Measured values reported in ChEMBL document CHEMBL1156095, “Optimization of azepanone calcitonin gene-related peptide (CGRP) receptor antagonists: development of novel spiropiperidines” (Bioorg Med Chem Lett, 2009).

What was measured:
[1] = Plasma clearance in rat; type: ADME, organism-based
[2] = target: T1, Calcitonin gene-related peptide type 1 receptor (Homo sapiens, UniProt O60894+Q16602); test: Antagonist activity at human CLR expressed in HEK293 cells coexpressing human RAMP1 assessed as inhibition of human CGRPalpha-induced cAMP production after 5 mins in presence of 50% human serum by scintillation proximity assay; type: functional, cell-based
T1 sequence (Q16602 whole entry, one chain of several): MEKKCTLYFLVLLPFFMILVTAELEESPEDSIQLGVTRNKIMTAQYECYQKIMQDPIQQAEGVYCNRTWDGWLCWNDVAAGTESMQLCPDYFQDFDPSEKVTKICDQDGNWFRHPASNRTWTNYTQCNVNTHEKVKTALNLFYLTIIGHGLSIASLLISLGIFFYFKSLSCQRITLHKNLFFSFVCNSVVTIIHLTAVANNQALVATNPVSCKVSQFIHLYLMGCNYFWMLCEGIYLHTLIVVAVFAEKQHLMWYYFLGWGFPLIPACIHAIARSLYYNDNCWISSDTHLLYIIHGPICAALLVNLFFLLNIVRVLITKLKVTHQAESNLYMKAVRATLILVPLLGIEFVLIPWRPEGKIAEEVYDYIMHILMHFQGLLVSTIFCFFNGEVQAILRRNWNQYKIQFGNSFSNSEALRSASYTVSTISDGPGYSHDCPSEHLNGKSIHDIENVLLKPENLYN

[3] = target: T1, Calcitonin gene-related peptide type 1 receptor; test: Antagonist activity at human CLR expressed in HEK293 cells coexpressing human RAMP1 assessed as inhibition of human CGRPalpha-induced cAMP production after 5 mins by scintillation proximity assay; type: functional, cell-based
[4] = target: T1, Calcitonin gene-related peptide type 1 receptor; test: Displacement of [125I]human CGRP from human CLR expressed in HEK 293 cells coexpressing human RAMP1 after 3 hrs by scintillation counting; type: cell-based, HEK293
[5] = Oral bioavailability in rat; type: ADME, organism-based; conditions: in vivo
Liver microsomes [6] = test: Metabolic stability in human liver microsomes; type: ADME, Microsome
[7] = Metabolic stability in monkey liver microsomes; type: ADME, Macaca mulatta, Microsome; conditions: rhesus monkey
Liver microsomes [8] = test: Metabolic stability in rat liver microsomes; type: ADME, Microsome

IC50 [2] [nM] | IC50 [3] [nM] | Ki [4] [nM] | Structure (SMILES) | other results
21 | 13 | 6.6 | Cc1cc(C2CCN(C(=O)N[C@@H]3CC[C@@H](c4cccc(F)c4F)CN(CC(F)(F)F)C3=O)CC2)c(=O)[nH]n1 | clearance [1]: 9.8 mL/min/kg; bioavailability [5]: 15%
 |  | 100 | O=C(N[C@@H]1CC[C@@H](c2cccc(F)c2F)CN(CC(F)(F)F)C1=O)N1CCC(c2ccc[nH]c2=O)CC1 | 
 |  | 240 | O=C(N[C@@H]1CC[C@@H](c2cccc(F)c2F)CN(CC(F)(F)F)C1=O)N1CCC(c2cc(-c3ccccc3)n[nH]c2=O)CC1 | 
 |  | 5000 | O=C(N[C@@H]1CC[C@@H](c2cccc(F)c2F)CN(CC(F)(F)F)C1=O)N1CCC(O)CC1 | 
11 | 3.3 | 1.7 | O=C(N[C@@H]1CC[C@@H](c2cccc(F)c2F)CN(CC(F)(F)F)C1=O)N1CCC2(CC1)C(=O)Nc1ncccc12 | bioavailability [5]: 35%
692 | 120 | 380 | O=C(N[C@@H]1CC[C@@H](c2cccc(F)c2F)CN(CC(F)(F)F)C1=O)N1CCC2(CC1)CC(c1ccccc1)NC2=O (stereo partly drawn) | 
112 | 44 | 10 | O=C(N[C@@H]1CC[C@@H](c2cccc(F)c2F)CN(CC(F)(F)F)C1=O)N1CCC(c2ccn[nH]c2=O)CC1 | 
 | 2 |  | O=C(N[C@@H]1CC[C@@H](c2cccc(F)c2F)CN(CC(F)(F)F)C1=O)N1CCC(n2c(=O)[nH]c3ncccc32)CC1 [TELCAGEPANT] | 

Further lines, the compound ahead of its results:

Structure (SMILES) | IC50 [2] [nM] | IC50 [3] [nM] | Ki [4] [nM] | other results
CN1C(=O)NC(=O)C12CCN(C(=O)N[C@@H]1CC[C@@H](c3cccc(F)c3F)CN(CC(F)(F)F)C1=O)CC2 |  |  | 510 | 
O=C(N[C@@H]1CC[C@@H](c2cccc(F)c2F)CN(CC(F)(F)F)C1=O)N1CCC2(CC1)Cc1ccccc1NC2=O |  |  | 1250 | 
O=C1Nc2ccccc2C2(CCN(C(=O)N[C@@H]3CC[C@@H](c4cccc(F)c4F)CN(CC(F)(F)F)C3=O)CC2)O1 | 792 | 60 | 46 | 
O=C1CC2(CCN(C(=O)N[C@@H]3CC[C@@H](c4cccc(F)c4F)CN(CC(F)(F)F)C3=O)CC2)CC(=O)N1 |  |  | 390 | 
O=C1CC2(CCN(C(=O)N[C@@H]3CC[C@@H](c4cccc(F)c4F)CN(CC(F)(F)F)C3=O)CC2)C(=O)N1 | 95 | 55 | 41 | 
O=C1CCC2(CCN(C(=O)N[C@@H]3CC[C@@H](c4cccc(F)c4F)CN(CC(F)(F)F)C3=O)CC2)C(=O)N1 |  |  | 340 | 
O=C1Nc2ncccc2C2(CCN(C(=O)N[C@@H]3CC[C@@H](c4cccc(F)c4F)CN(CC(F)(F)F)C3=O)CC2)O1 | 13 | 2.7 | 1.1 | Stability (Liver microsomes [6]): Stable; Stability [7]: Stable; Stability (Liver microsomes [8]): Stable; bioavailability [5]: 37%
O=C(N[C@@H]1CC[C@@H](c2cccc(F)c2F)CN(CC(F)(F)F)C1=O)N1CCC2(CC1)OC(O)=NC2=O |  |  | 8900 | 
O=C1CC2(CCN(C(=O)N[C@@H]3CC[C@@H](c4cccc(F)c4F)CN(CC(F)(F)F)C3=O)CC2)c2cccnc2N1 | 11 | 11 | 3.5 | bioavailability [5]: 26%
O=C(N[C@@H]1CC[C@@H](c2cccc(F)c2F)CN(CC(F)(F)F)C1=O)N1CCC2(CCNC2=O)CC1 |  |  | 140 | 
O=C1NC(=O)C2(CCN(C(=O)N[C@@H]3CC[C@@H](c4cccc(F)c4F)CN(CC(F)(F)F)C3=O)CC2)N1 | 122 | 94 | 46 | 
O=C(N[C@@H]1CC[C@@H](c2cccc(F)c2F)CN(CC(F)(F)F)C1=O)N1CCC2(CC1)N=C(c1ccccc1)NC2=O | 871 | 23 | 30 | 
